Patent US8471005B2 (Cephalon, Inc., priority 2008, dated 2013)
Read-outs that look alike come from different tables or passages of the source.

Biological target: T1, ALK (Homo sapiens, UniProt Q9UM73)
T1 construct: host or cells: baculovirus expression system
Assay: ALK Kinase Assay (ELISA/TRF, PLC-γ substrate)
Format: biochemical
Details: read-out: ALK Potency
Procedure: Briefly, each 96-well plate was coated with […] of 10 μg/mL substrate (phospholipase C-γ) in Tris-buffered saline (TBS). […] The reaction was initiated by adding enzyme (30 ng/ml ALK) and was allowed to proceed at 37° C. for 15 minutes. Detection of the phosphorylated product was performed by adding 100 μl/well of Eu—N1 labeled PT66 antibody (Perkin Elmer # AD0041).
Data analysis was performed using ActivityBase (IDBS, Guilford, UK). IC50 values were calculated by plotting percent inhibition versus log10 of the concentration of compound and fitting to the nonlinear regression sigmoidal dose-response (variable slope) equation in XLFit (IDBS, Guilford, UK).

[1] = ALK kinase inhibition, 1 μM ATP

T1 sequence (Q9UM73 19-1620): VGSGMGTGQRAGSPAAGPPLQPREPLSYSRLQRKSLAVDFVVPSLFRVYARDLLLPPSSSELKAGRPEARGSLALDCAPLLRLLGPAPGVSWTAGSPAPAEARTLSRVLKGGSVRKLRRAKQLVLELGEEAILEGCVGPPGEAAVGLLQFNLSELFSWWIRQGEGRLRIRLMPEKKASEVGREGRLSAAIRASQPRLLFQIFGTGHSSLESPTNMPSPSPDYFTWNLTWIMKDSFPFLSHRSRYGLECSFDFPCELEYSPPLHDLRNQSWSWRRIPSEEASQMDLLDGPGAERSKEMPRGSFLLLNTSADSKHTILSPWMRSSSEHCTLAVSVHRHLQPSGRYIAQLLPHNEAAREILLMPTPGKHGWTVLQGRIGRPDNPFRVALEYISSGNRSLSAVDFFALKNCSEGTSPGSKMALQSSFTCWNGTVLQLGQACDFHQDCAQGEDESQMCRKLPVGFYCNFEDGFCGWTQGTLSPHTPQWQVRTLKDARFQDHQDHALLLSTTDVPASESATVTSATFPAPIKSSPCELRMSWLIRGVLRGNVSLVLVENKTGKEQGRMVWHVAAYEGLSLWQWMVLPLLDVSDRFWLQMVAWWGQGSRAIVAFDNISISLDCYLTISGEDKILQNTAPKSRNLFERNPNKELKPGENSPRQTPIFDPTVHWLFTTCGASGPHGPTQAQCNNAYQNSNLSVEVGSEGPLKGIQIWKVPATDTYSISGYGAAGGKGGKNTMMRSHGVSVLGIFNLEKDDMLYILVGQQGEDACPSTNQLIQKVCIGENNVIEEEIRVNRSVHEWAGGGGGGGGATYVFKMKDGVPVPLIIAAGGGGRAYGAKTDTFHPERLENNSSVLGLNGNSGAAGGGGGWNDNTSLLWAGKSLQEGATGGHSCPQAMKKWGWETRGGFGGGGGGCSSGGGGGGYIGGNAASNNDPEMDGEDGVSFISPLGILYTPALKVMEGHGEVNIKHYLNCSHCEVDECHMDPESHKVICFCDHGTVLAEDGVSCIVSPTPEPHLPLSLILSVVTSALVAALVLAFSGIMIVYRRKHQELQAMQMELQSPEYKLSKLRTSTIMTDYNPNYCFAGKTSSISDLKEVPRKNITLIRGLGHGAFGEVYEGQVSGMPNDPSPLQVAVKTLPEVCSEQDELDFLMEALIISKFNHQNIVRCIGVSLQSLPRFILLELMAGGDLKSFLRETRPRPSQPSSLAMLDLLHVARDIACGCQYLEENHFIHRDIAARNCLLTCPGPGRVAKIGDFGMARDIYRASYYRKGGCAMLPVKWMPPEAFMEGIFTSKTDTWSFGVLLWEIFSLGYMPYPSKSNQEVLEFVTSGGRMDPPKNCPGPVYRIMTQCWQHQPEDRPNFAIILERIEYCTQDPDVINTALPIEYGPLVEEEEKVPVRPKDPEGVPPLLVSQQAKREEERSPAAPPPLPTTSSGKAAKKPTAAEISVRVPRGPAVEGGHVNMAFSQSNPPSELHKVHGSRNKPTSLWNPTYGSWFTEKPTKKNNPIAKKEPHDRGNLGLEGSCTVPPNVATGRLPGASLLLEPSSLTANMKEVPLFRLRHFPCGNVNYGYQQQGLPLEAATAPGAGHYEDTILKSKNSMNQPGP

| SMILES | IC50 (ALK Kinase Inhibition) | IC50 [1] |
| --- | --- | --- |
| COc1ccccc1-c1ccc2cnc(Nc3ccc(N4CCN(C)CC4)cc3)nn12 [Example 20, [7-(2-Methoxy-phenyl)-pyrrolo[2,1-f][1,2,4]triazin-2-yl]-[4-(4-methyl-piperazin-1-1)-phenyl]-amine] | < 100 nM | – |
| CN1CCN(c2ccc(Nc3ncc4ccc(-c5cccc(S(=O)(=O)NC(C)(C)C)c5)n4n3)cc2)CC1 [Example 23, N-tert-Butyl-3-{2-[4-(4-methyl-piperazin-1-yl)-phenylamino]-pyrrolo[2,1-f][1,2,4]triazin-7-yl}-benzenesulfonamide] | < 100 nM | – |
| COc1ccc(-c2ccc3cnc(Nc4ccc(N5CCN(C)CC5)cc4)nn23)cn1 [Example 81, [7-(6-Methoxy-pyridin-3-yl)-pyrrolo[2,1-f][1,2,4]triazin-2-yl]-[4-(4-methyl-piperazin-1-yl)-phenyl]-amine] | 100 to 1000 nM | – |
| COc1ccccc1-c1ccc2cnc(Nc3ccc(N4CCN(C)CC4)c(F)c3)nn12 [Example 90, [3-Fluoro-4-(4-methyl-piperazin-1-yl)-phenyl]-[7-(2-methoxy-phenyl)-pyrrolo[2,1-f][1,2,4]triazin-2-yl]-amine] | < 100 nM | – |
| CN1CCN(c2ccc(Nc3ncc4ccc(-c5ccccc5N(C)S(C)(=O)=O)n4n3)c(Cl)c2)CC1 [Example 507, N-(2-{2-[2-Chloro-4-(4-methyl-piperazin-1-yl)-phenylamino]-pyrrolo[2,1-f][1,2,4]triazin-7-yl}-phenyl)-N-methyl-methanesulfonamide] | – | < 100 nM |
| COc1cc(N2CCC(N3CCN(C(C)=O)CC3)CC2)ccc1Nc1ncc2ccc(-c3ccccc3OC)n2n1 [Example 536, 1-[4-(1-{3-Methoxy-4-[7-(2-methoxy-phenyl)-pyrrolo[2,1-f][1,2,4]triazin-2-ylamino]-phenyl}-piperidin-4-yl)-piperazin-1-yl]-ethanone] | – | < 100 nM |
| COc1cc(N2CCC(N3CCNCC3)CC2)ccc1Nc1ncc2ccc(-c3ccccc3OC)n2n1 [Example 537, [7-(2-Methoxy-phenyl)-pyrrolo[2,1-f][1,2,4]triazin-2-yl]-[2-methoxy-4-(4-piperazin-1-yl-piperidin-1-yl)-phenyl]-amine] | – | < 100 nM |
| CS(=O)(=O)N1Cc2cccc(-c3ccc4cnc(Nc5ccc(C6CCN(CC(N)=O)CC6)cc5)nn34)c2C1 [Example 579, 2-(4-{4-[7-(2-Methanesulfonyl-2,3-dihydro-1H-isoindol-4-yl)-pyrrolo[2,1-f][1,2,4]triazin-2-ylamino]-phenyl}-piperidin-1-yl)-acetamide] | – | 1000 to 10000 nM |
| CN1CCN(c2ccc(Nc3ncc4ccc(-c5ccccc5N(C)S(C)(=O)=O)n4n3)cc2)CC1 [Example 627, N-Methyl-N-(2-{2-[4-(4-methyl-piperazin-1-yl)phenylamino]pyrrolo[2,1-f][1,2,4]triazin-7-yl}phenyl)methanesulfonamide] | – | < 100 nM |
| COc1cc(N2CCN(C[C@@H](O)CO)CC2)ccc1Nc1ncc2ccc(-c3ccccc3OC)n2n1 [Example 758, (R)-3-(4-{3-Methoxy-4-[7-(2-methoxy-phenyl)-pyrrolo[2,1-f][1,2,4]triazin-2-ylamino]-phenyl}-piperazin-1-yl)-propane-1,2-diol] | – | < 100 nM |
| COc1cc(N2CCN(C[C@H](O)CO)CC2)ccc1Nc1ncc2ccc(-c3cc(Cl)ccc3OC)n2n1 [Example 759, (S)-3-(4-{4-[7-(5-Chloro-2-methoxy-phenyl)-pyrrolo[2,1-f][1,2,4]triazin-2-ylamino]-3-methoxy-phenyl}-piperazin-1-yl)-propane-1,2-diol] | – | < 100 nM |
| COc1cc(N2CCN(C[C@H](O)CO)CC2)ccc1Nc1ncc2ccc(-c3ccccc3OC)n2n1 [Example 760, (S)-3-(4-{3-Methoxy-4-[7-(2-methoxy-phenyl)-pyrrolo[2,1-f][1,2,4]triazin-2-ylamino]-phenyl}-piperazin-1-yl)-propane-1,2-diol] | – | < 100 nM |
| COc1cc(N2CCCN(C[C@H](O)CO)CC2)ccc1Nc1ncc2ccc(-c3ccccc3OC)n2n1 [Example 767, (S)-3-(4-{3-Methoxy-4-[7-(2-methoxy-phenyl)-pyrrolo[2,1-f][1,2,4]triazin-2-ylamino]-phenyl}-[1,4]diazepan-1-yl)-propane-1,2-diol] | – | < 100 nM |
| COc1ccc(C2CCN(C)CC2)cc1Nc1ncc2ccc(-c3ccccc3OC)n2n1 [Example 770, [2-Methoxy-5-(1-methyl-piperidin-4-yl)-phenyl]-[7-(2-methoxy-phenyl)-pyrrolo[2,1-f][1,2,4]triazin-2-yl]-amine] | – | < 100 nM |
| COc1cc2c(cc1Nc1ncc3ccc(-c4ccccc4OC)n3n1)CCCC(N1CCOCC1)C2 (centres unmarked) [Example 992, (3-Methoxy-6-morpholin-4-yl-6,7,8,9-tetrahydro-5H-benzocyclohepten-2-yl)-[7-(2-methoxy-phenyl)-pyrrolo[2,1-f][1,2,4]triazin-2-yl]-amine] | – | < 100 nM |
| Cc1cc2cnc(Nc3ccc(N4CCN(C)CC4)cc3)nn2c1-c1cccc(CCC#N)c1 [Example 1160, 3-(3-{6-Methyl-2-[4-(4-methyl-piperazin-1-yl)-phenylamino]-pyrrolo[2,1-f][1,2,4]triazin-7-yl}-phenyl)-propionitrile] | – | < 100 nM |
| Cc1cc(-c2ccccc2N(C)S(C)(=O)=O)n2nc(Nc3ccc(C4CCN(CC(N)=O)CC4)cc3)ncc12 [Example 1261, 2-[4-(4-{7-[2-(Methanesulfonyl-methyl-amino)-phenyl]-5-methyl-pyrrolo[2,1-f][1,2,4]triazin-2-ylamino}-phenyl)-piperidin-1-yl]-acetamide] | – | < 100 nM |
| CN1CCN(c2ccc(Nc3ncc4ccc(-c5cccc(S(=O)(=O)NC(C)(C)C)c5)n4n3)cc2Cl)CC1 [Example 1411, N-tert-Butyl-3-{2-[3-chloro-4-(4-methyl-piperazin-1-yl)-phenylamino]-pyrrolo[2,1-f][1,2,4]triazin-7-yl}-benzenesulfonamide] | < 100 nM | – |
| C[C@H](O)CN1CCN(c2ccc(Nc3ncc4ccc(-c5cccc(S(=O)(=O)NC(C)(C)C)c5)n4n3)cc2F)CC1 [Example 1412, N-tert-Butyl-3-(2-{3-fluoro-4-[4-((S)-2-hydroxy-propyl)-piperazin-1-yl]-phenylamino}-pyrrolo[2,1-f][1,2,4]triazin-7-yl)-benzenesulfonamide] | < 100 nM | – |
| COc1ccccc1-c1ccc2cnc(Nc3ccc(N4CCN(C[C@H](C)O)CC4)c(F)c3)nn12 [Example 1417, (S)-1-(4-{2-Fluoro-4-[7-(2-methoxy-phenyl)-pyrrolo[2,1-f][1,2,4]triazin-2-ylamino]-phenyl}-piperazin-1-yl)-propan-2-ol] | < 100 nM | – |
| COc1ccccc1-c1ccc2cnc(Nc3ccc(N4CCN(C)CC4)c(Cl)c3)nn12 [Example 1418, [3-Chloro-4-(4-methyl-piperazin-1-yl)-phenyl]-[7-(2-methoxy-phenyl)-pyrrolo[2,1-f][1,2,4]triazin-2-yl]-amine] | < 100 nM | – |
| COc1ccc(-c2ccc3cnc(Nc4ccc(N5CCN(C)CC5)c(Cl)c4)nn23)cn1 [Example 1419, [3-Chloro-4-(4-methyl-piperazin-1-yl)-phenyl]-[7-(6-methoxy-pyridin-3-yl)-pyrrolo[2,1-f][1,2,4]triazin-2-yl]-amine] | 100 to 1000 nM | – |
| CN1CCN(c2ccc(Nc3ncc4ccc(-c5ccccc5N(C)S(C)(=O)=O)n4n3)cc2F)CC1 [Example 1421, N-(2-{2-[3-Fluoro-4-(4-methyl-piperazin-1-yl)-phenylamino]-pyrrolo[2,1-f][1,2,4]triazin-7-yl}-phenyl)-N-methyl-methanesulfonamide] | < 100 nM | – |
